Data taken from ChEMBL document CHEMBL3885861, “Open TG-GATES”.

Species on record: Rattus norvegicus
Assay: Open TG-GATES - Regimen: Single
Type: toxicity, organism-based, Sprague-Dawley
Parameters: regimen Single, gender Male, age 6 weeks
Conditions: in vivo, po, route gavage; for TC / TP / gamma-GTP / ALP / ALT / AST / BUN / CRE / Cl / IP / LDH / PL / RALB / TBIL / Ca / DBIL / K / Na: tissue Plasma; for APTT / Bas / Eos / Fbg / Hb / Ht / Lym / MCH / MCHC / MCV / Mono / PT / Plat / RBC / Ret / WBC: tissue Blood; for KIDNEY_L / KIDNEY_R / KIDNEY_TOTAL: tissue Kidney; for LIVER: tissue Liver
[1] = 0 mg/kg, 24 h, dose level Control

## C#C[C@]1(O)CC[C@H]2[C@@H]3CCc4cc(O)ccc4[C@H]3CC[C@@]21C [ETHINYL ESTRADIOL]
[1]
  TC: 84.6 mg/dL
  TP: 5.4 g/dL
  gamma-GTP: 0.8 IU/L
1 mg/kg, 3 h, dose level Low
  TERMINAL_BW: 195 g
  APTT: 16.3 s
  Bas: 0%
  Eos: 1%
  Fbg: 258.2 mg/dL
  Hb: 13 g/dL
  Ht: 39.1%
  Lym: 80.2%
  MCH: 21.9 pg
  MCHC: 33.4%
  MCV: 65.4 fL
  Mono: 3.4%
  PT: 12.3 s
  Plat: 118.9 x10_4/uL
  RBC: 598.2 x10_4/ul
  Ret: 9.4%
  WBC: 96.2 x10_2/uL
  KIDNEY_L: 0.8 g
  KIDNEY_R: 0.8 g
  KIDNEY_TOTAL: 1.6 g
  LIVER: 8.5 g
  ALP: 1630.2 IU/L
  ALT: 49 IU/L
  AST: 78.4 IU/L
  BUN: 11 mg/dL
  CRE: 0.2 mg/dL
  Cl: 106 meq/L
  IP: 9.2 mg/dL
  LDH: 54.2 IU/L
  PL: 146.4 mg/dL
  RALB: 2.6 g/dL
  TBIL: 0.038 mg/dL
  TC: 77.6 mg/dL
  TP: 5.5 g/dL
1 mg/kg, 6 h, dose level Low
  TERMINAL_BW: 195.9 g
  APTT: 15.3 s
  Bas: 0%
  Eos: 1%
  Fbg: 262.8 mg/dL
  Hb: 12.9 g/dL
  Ht: 38.6%
  Lym: 68.6%
  MCH: 21.8 pg
  MCHC: 33.5%
  MCV: 65.2 fL
  Mono: 2.4%
  PT: 12.4 s
  Plat: 110.9 x10_4/uL
  RBC: 591.6 x10_4/ul
  Ret: 9.8%
  WBC: 83.7 x10_2/uL
  KIDNEY_L: 0.8 g
  KIDNEY_R: 0.8 g
  KIDNEY_TOTAL: 1.7 g
  LIVER: 8 g
  ALP: 1545.4 IU/L
  ALT: 40.8 IU/L
  AST: 80.8 IU/L
  BUN: 8 mg/dL
  CRE: 0.2 mg/dL
  Ca: 10.5 mg/dL
  Cl: 109.4 meq/L
  DBIL: 0.01 mg/dL
  IP: 10 mg/dL
  K: 4 meq/L
  LDH: 42.2 IU/L
  Na: 144.6 meq/L
  PL: 112 mg/dL
  RALB: 2.4 g/dL
  TBIL: 0.04 mg/dL
  TC: 55 mg/dL
  TP: 5.2 g/dL
1 mg/kg, 9 h, dose level Low
  TERMINAL_BW: 196.1 g
  APTT: 15.5 s
  Bas: 0%
  Eos: 0.8%
  Fbg: 265.6 mg/dL
  Hb: 12.7 g/dL
  Ht: 37.6%
  Lym: 75.4%
  MCH: 21.9 pg
  MCHC: 33.7%
  MCV: 65.1 fL
  Mono: 2.4%
  PT: 12.8 s
  Plat: 110 x10_4/uL
  RBC: 578.2 x10_4/ul
  Ret: 9.3%
  WBC: 75.5 x10_2/uL
  KIDNEY_L: 0.9 g
  KIDNEY_R: 0.8 g
  KIDNEY_TOTAL: 1.7 g
  LIVER: 7.7 g
  ALP: 1698.8 IU/L
  ALT: 37.6 IU/L
  AST: 75.6 IU/L
  BUN: 9.2 mg/dL
  CRE: 0.2 mg/dL
  Ca: 10.6 mg/dL
  Cl: 109 meq/L
  DBIL: 0.012 mg/dL
  IP: 10.2 mg/dL
  K: 3.8 meq/L
  LDH: 40.6 IU/L
  Na: 145.2 meq/L
  PL: 96.4 mg/dL
  RALB: 2.5 g/dL
  TBIL: 0.042 mg/dL
  TC: 44.8 mg/dL
  TP: 5.2 g/dL
  gamma-GTP: 1.2 IU/L
1 mg/kg, 24 h, dose level Low
  TERMINAL_BW: 200.1 g
  APTT: 14.9 s
  Bas: 0%
  Eos: 1%
  Fbg: 224.6 mg/dL
  Hb: 13.1 g/dL
  Lym: 75.2%
  MCHC: 34%
  MCV: 62.5 fL
  Mono: 3.4%
  PT: 13.2 s
  Plat: 107.2 x10_4/uL
  RBC: 619.8 x10_4/ul
  Ret: 7.6%
  WBC: 93.7 x10_2/uL
  KIDNEY_L: 0.9 g
  KIDNEY_R: 0.9 g
  KIDNEY_TOTAL: 1.8 g
  LIVER: 9.3 g
  ALP: 2023.4 IU/L
  AST: 74.8 IU/L
  CRE: 0.2 mg/dL
  Ca: 10.8 mg/dL
  Cl: 106.4 meq/L
  DBIL: 0.024 mg/dL
  IP: 7.4 mg/dL
  K: 4 meq/L
  LDH: 59.6 IU/L
  Na: 142.8 meq/L
  PL: 113.6 mg/dL
  RALB: 2.5 g/dL
  TBIL: 0.034 mg/dL
  TC: 40.8 mg/dL
  TP: 5.3 g/dL
  gamma-GTP: 1.2 IU/L
